Assays:
[1] = test system: CD8+ T cells; experiment: In vitro T-cell priming assay with aAPCs loaded with peptide/MHC and anti-CD28, multimer readout; type: cell-based, human; details: in vitro immunogenicity, HLA-A*02 restricted peptides; percentage of positive wells
Description: In order to obtain information regarding the immunogenicity of the TUMAPs of the present invention, the inventors performed investigations using an in vitro T-cell priming assay based on repeated stimulations of CD8+ T cells with artificial antigen presenting cells (aAPCs) loaded with peptide/MHC complexes and anti-CD28 antibody.
In order to perform in vitro stimulations by artificial antigen presenting cells loaded with peptide-MHC complex (pMHC) and anti-CD28 antibody, the inventors first isolated CD8+ T cells from fresh HLA-A*02 leukapheresis products via positive selection using CD8 microbeads (Miltenyi Biotec, Bergisch-Gladbach, Germany) of healthy donors obtained from the University clinics Mannheim, Germany, after informed consent.
PBMCs and isolated CD8+ lymphocytes were incubated in T-cell medium (TCM) until use consisting of RPMI-Glutamax (Invitrogen, Karlsruhe, Germany) supplemented with 10% heat inactivated human AB serum (PAN-Biotech, Aidenbach, Germany), 100 U/ml Penicillin/100 μg/ml Streptomycin (Cambrex, Cologne, Germany), 1 mM sodium pyruvate (CC Pro, Oberdorla, Germany), 20 μg/ml Gentamycin (Cambrex). 2.5 ng/ml IL-7 (PromoCell, Heidelberg, Germany) and 10 U/ml IL-2 (Novartis Pharma, Nürnberg, Germany) were also added to the TCM at this step.
Generation of pMHC/anti-CD28 coated beads, T-cell stimulations and readout was performed in a highly defined in vitro system using four different pMHC molecules per stimulation condition and 8 different pMHC molecules per readout condition.
The purified co-stimulatory mouse IgG2a anti human CD28 Ab 9.3 (Jung et al., 1987) was chemically biotinylated using Sulfo-N-hydroxysuccinimidobiotin as recommended by the manufacturer (Perbio, Bonn, Germany). Beads used were 5.6 μm diameter streptavidin coated polystyrene particles (Bangs Laboratories, Illinois, USA).
800.000 beads/200 μl were coated in 96-well plates in the presence of 4×12.5 ng different biotin-pMHC, washed and 600 ng biotin anti-CD28 were added subsequently in a volume of 200 μl. Stimulations were initiated in 96-well plates by co-incubating […] CD8+ T cells with 2×10^5 washed coated beads in 200 μl TCM supplemented with 5 ng/ml IL-12 (PromoCell) for 3 days at 37° C. Half of the medium was then exchanged by fresh TCM supplemented with 80 U/ml IL-2 and incubating was continued for 4 days at 37° C. This stimulation cycle was performed for a total of three times. For the pMHC multimer readout using 8 different pMHC molecules per condition, a two-dimensional combinatorial coding approach was used as previously described (Andersen et al., 2012) with minor modifications encompassing coupling to 5 different fluorochromes. Finally, multimeric analyses were performed by staining the cells with Live/dead near IR dye (Invitrogen, Karlsruhe, Germany), CD8-FITC antibody clone SK1 (BD, Heidelberg, Germany) and fluorescent pMHC multimers. For analysis, a BD LSRII SORP cytometer equipped with appropriate lasers and filters was used. Peptide specific cells were calculated as percentage of total CD8+ cells. Evaluation of multimeric analysis was done using the FlowJo software (Tree Star, Oreg., USA). In vitro priming of specific multimer+CD8+ lymphocytes was detected by comparing to negative control stimulations.

[2] = molecular target: HLA-A*02:01 (Homo sapiens, UniProt P04439, D140Y/D185E/D98H/E176V/E277Q/G131W/G231S/I119V/I121R/I166T/I218V/L300P/L318F/N151K/N90K/P208A/P217A/Q86G/Q94H/R138H/R169H/T345S); experiment: MHC binding assay (UV-ligand exchange, beta2m ELISA); details: binding of HLA-class I restricted peptides to HLA-A*02:01, β2m ELISA
Summary of the method: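 Binding capacity is expressed as the yield of UV-mediated ligand exchange, reflecting how well each peptide stabilizes peptide-receptive MHC. Stabilized complexes are read out by anti-β2m HRP ELISA (450 nm) after streptavidin capture, with refolded MLA-001 monomer standards for quantitation.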

Substance | Wells positive [%] [1] | Peptide Exchange (MHC class I binding score, peptide exchange yield) [2]
112 (KTLDVDATYEI; listed as Homo sapiens) [compound 112] | “+” (<20% = +) | “+++” (≥50 = +++)
114 (LIPEGPPQV; listed as Homo sapiens) [compound 114] | “+” (<20% = +) | “+++” (≥50 = +++)
154 (SLLAELHVLTV; listed as Homo sapiens) [compound 154] | “+” (<20% = +) | “++++” (≥75% = ++++)
192 (YIQEYLTLL; listed as Homo sapiens) [compound 192] | “+” (<20% = +) | “+++” (≥50 = +++)
197 (YLQEVPILTL; listed as Homo sapiens) [compound 197] | “+” (<20% = +) | “++++” (≥75% = ++++)
200 (YMFEEVPIVI; listed as Homo sapiens) [compound 200] | “+” (<20% = +) | “++++” (≥75% = ++++)
201 (YQLELHGIEL; listed as Homo sapiens) [compound 201] | “+” (<20% = +) | “++++” (≥75% = ++++)
202 (YVDDVFLRV; listed as Homo sapiens) [compound 202] | “++” (20%-49% = ++) | “++++” (≥75% = ++++)
220 (ALPEILFAKV; listed as Homo sapiens) [compound 220] | “++” (20%-49% = ++) | “+++” (≥50 = +++)
240 (ILARDILEI; listed as Homo sapiens) [compound 240] | “+” (<20% = +) | “+++” (≥50 = +++)
281 (NLLDDRGMTAL; listed as Homo sapiens) [compound 281] | “+” (<20% = +) | “+++” (≥50 = +++)
282 (LLRDGIELV; listed as Homo sapiens) [compound 282] | “++” (20%-49% = ++) | “+++” (≥50 = +++)
307 (LLLTKPTEA; listed as Homo sapiens) [compound 307] | “+” (<20% = +) | “+++” (≥50 = +++)
320 (TIAPVTVAV; listed as Homo sapiens) [compound 320] | “+” (<20% = +) | “++++” (≥75% = ++++)
322 (SLASIHVPL; listed as Homo sapiens) [compound 322] | “+” (<20% = +) | “+++” (≥50 = +++)
323 (SLDLFNCEV; listed as Homo sapiens) [compound 323] | “+” (<20% = +) | “++++” (≥75% = ++++)
329 (VLMDGSVKL; listed as Homo sapiens) [compound 329] | “+++” (50%-69% = +++) | “++++” (≥75% = ++++)
332 (VMIQHVENL; listed as Homo sapiens) [compound 332] | “+” (<20% = +) | “+++” (≥50 = +++)
380 (YLDRKLLTL; listed as Homo sapiens) [compound 380] | “++++” (>=70% = ++++) | “+++” (≥50 = +++)

From US10064928B2, “Peptides and combination of peptides for use in immunotherapy against CLL and other cancers” (IMMATICS BIOTECHNOLOGIES GMBH, priority 2015, dated 2018)
